Experiments:
Human TRPA1 (hTRPA1) [1] = target: T1, Human TRPA1 (hTRPA1) (Homo sapiens, UniProt O75762); experiment: TRPA1 Activation Test 2: intracellular Ca2+ imaging assay 2-1 to 2-3, hTRPA1 stably expressing cell line; assay type: cell-based; details: for TRPA1 activation rates: Table 10; for Concentration dependence of TRPA1 activity (in words): additional experiments; for TRPA1 activating action (in words): hTRPA1 stably expressing cell line; for TRPA1 activation rate, With antagonist / TRPA1 activation rate, Without antagonist: Table 11
T1 construct: expressed in transfected cells
Procedure: (§1) DNAs encoding genes described in the following Table 2 were inserted into pcDNA 5/TO vector (Invitrogen) to prepare various expression vectors.
(§2) These expression vectors were transfected into T-REx™_293 cells (Invitrogen) by a conventional method using Lipofectamine LTX (Invitrogen). Then, various transfectants were cultured and cloned by a conventional method using Dulbecco's Modified Eagle Medium (DMEM, Nacalai Tesque Inc.), containing 10% fetal bovine serum (FBS, Cytiva), […] of hygromycin B, and 5 μg/mL of blasticidin S, as a drug selection medium to obtain a hTRPA1 stably expressing cell line, a hTRPV1 stably expressing cell line, and a hTRPM8 stably expressing cell line.
(§3) A hTRPA1 stably expressing cell line in which expression of hTRPA1 had been induced in advance by a conventional method was prepared in a 96 well clear bottom plate, and the hTRPA1 activating action of rhein (produced by Tokyo Chemical Industry Co., Ltd.) was tested. Specifically, after each well was washed with PBS, 50 μL of an assay buffer (Hanks' balanced salt solution containing no calcium ion or magnesium ion that contained 1 mM of CaCl2 dihydrate, 20 mM of HEPES, and 0.1% BSA) containing calcium fluorescent indicator Calbryte™ 520 AM (produced by AAT Bioquest) in a final concentration of 4 μM was added, followed by incubating at 33° C. for 45 minutes. After washing with the assay buffer, 100 μL of the assay buffer was added to each well. This plate was set to FlexStation 3 (Molecular Devices, LLC), and a fluorescence intensity (excitation wavelength 490 nm, fluorescence wavelength 525 nm) at 31° C. was measured every two seconds, and 30 seconds after the start of the measurement, 100 μL of an assay buffer containing a test sample (allyl isothiocyanate (AITC) of positive control or rhein) which was prepared to have a certain final concentration or DMSO was added. Then, a well in which an assay buffer containing ionomycin (having a final concentration of 10 μM after the addition) instead of the test samples was added was also prepared as a reference for fluorescence intensity.
(§4) The measurement was continued from the start of the measurement up to 120 seconds, and the TRPA1 activation ability of the test samples was calculated in accordance with the following formula.
(§5) Activation rate (%)=(Fmax[s]−F0)/(Fmax[i]−F0)×100 • Fmax[s]: The maximum value of the fluorescence intensity when the test sample or positive control was added • F0: The average value of the fluorescence intensity for 20 seconds after the start of the measurement (base line) • Fmax[i]: The maximum value of the fluorescence intensity when ionomycin was added
The TRPA1 activation ability of each test sample was measured in the same manner as in the above (2) except the test was conducted with A-967079 (1 μM), which is a TRPA1-specific antagonist, or without A-967079. In addition, intracellular Ca^2+ imaging assay was conducted in the same manner as in the above (2) except that a hTRPV1 stably expressing cell line, a hTRPM8 stably expressing cell line, or a Mock cell was used instead of the hTRPA1 stably expressing cell line. Note that capsaicin was used as positive control for the hTRPV1 stably expressing cell line, and icilin was used as positive control for the hTRPM8 stably expressing cell line.
A TRPA1 activation ability was measured in the same manner as in the above (2) by using, as a test sample, rhein or compounds described in the following Table 10, which had anthraquinone structures similar to rhein, at a concentration of 200 μM of the test sample.

[2] = Anorexia Improving Test 3: cumulative amounts of food ingested of mice, rhein with or without A-967079; assay type: in vivo; details: oral, rhein 100 μmol/kg body weight, A-967079 10 μmol/kg body weight
Procedure: Male ICR mice were housed in individual cages in which ALPHA-dri (Shepherd Specialty Papers) was laid, and were acclimatized and raised for at least one week or more while a powder feed (CE-2, CLEA Japan, Inc.) was given to the mice by using a powder feeder for mice (SN-950, Shinano Manufacturing Co., Ltd.). Then, for several days before the experiment, handling and oral administration training using a feeding needle (FG4202, Fuchigami Kikai Co., Ltd.) were conducted every day. To 9 week-old mice under ad libitum feeding conditions, a carrier solution (containing 2% of dimethyl sulfoxide and 98% of a 0.5% methyl cellulose solution in volume ratio) or a rhein solution (obtained by dissolving 8.53 mg of rhein in 1 mL of the carrier solution) was orally administered from 9:20 a.m. (10 mL/kg body weight). The dosage of rhein was 300 μmol/kg body weight in terms of molar concentration. Then, a feeder the mass of which had been measured in advance was set in the cage at 9:30 a.m. The masses of the feeder and the feed spilled in the cage 0.5, 1, 2, and 3 hours after the start of the feeding experiment were measured, and the ingested mass (g) at each time was measured (n=6). The ingested mass (g) of each mouse was measured in the same manner as in anorexia improving test 2 (the above item 5) except that 10 mL/kg body weight of a carrier solution, a rhein solution (100 μmol/kg body weight), an A-967079 solution (10 μmol/kg body weight), or a mixed solution of A-967079 and rhein (in 10 μmol/kg body weight and 100 μmol/kg body weight, respectively) was orally administered to the mouse. Results obtained by calculating the cumulative amounts of food ingested and conducting a multiple comparison (multiple t-test) by the Dunn-Bonferroni method are shown in Table 12.

Human TRPA1 (hTRPA1) [3] = target: T1, Human TRPA1 (hTRPA1); experiment: TRPA1 Activation Test 1: intracellular Ca2+ imaging assay 1-1 to 1-3, hTRPA1 stably expressing cell line; assay type: cell-based; details: for TRPA1 activating action with TRPA1-specific antagonist (in words) / TRPA1 activation rate, With antagonist: A-967079 1 μM; for TRPA1 activating action (in words): hTRPA1 stably expressing cell line; for TRPA1 activation rate, With antagonist / TRPA1 activation rate, Without antagonist: Table 6
Procedure: as §1, §2
as §3, with “bottom plate (black),” for “bottom plate,”, “and a” for “and the”, “of the purified oxylipin or the R2 fraction (both were assumed to contain a compound having a molecular weight of 294) obtained in the above item 1” for “of rhein (produced by Tokyo Chemical Industry Co., Ltd.)”, “calcium ions” for “calcium ion”, “magnesium ions” for “magnesium ion”, “sample” for “sample (allyl isothiocyanate (AITC) of positive control or rhein)”
as §4
as §5, with “sample or the positive control” for “sample or positive control”
The TRPA1 activation ability was measured in the same manner as in the above (2) except that the R2 fraction or allyl isothiocyanate (AITC) was used as a test sample and the test was conducted with A-967079 (1 μM), which is a TRPA1-specific antagonist, or without A-967079. In addition, regarding the R2 fraction, the hTRPV1 stably expressing cell line or the hTRPM8 stably expressing cell line was used instead of the hTRPA1 stably expressing cell line to conduct the same test. Note that as positive controls, capsaicin was used for the hTRPV1 stably expressing cell line and icilin was used for the hTRPM8 stably expressing cell line.
The TRPA1 activation ability was measured in the same manner as in the above (2) except that each isolated compound or allyl isothiocyanate (AITC) was used as a test sample and the test was conducted with A-967079 (1 μM), which was a TRPA1-specific antagonist, or without A-967079.

T1 sequence (O75762 whole entry): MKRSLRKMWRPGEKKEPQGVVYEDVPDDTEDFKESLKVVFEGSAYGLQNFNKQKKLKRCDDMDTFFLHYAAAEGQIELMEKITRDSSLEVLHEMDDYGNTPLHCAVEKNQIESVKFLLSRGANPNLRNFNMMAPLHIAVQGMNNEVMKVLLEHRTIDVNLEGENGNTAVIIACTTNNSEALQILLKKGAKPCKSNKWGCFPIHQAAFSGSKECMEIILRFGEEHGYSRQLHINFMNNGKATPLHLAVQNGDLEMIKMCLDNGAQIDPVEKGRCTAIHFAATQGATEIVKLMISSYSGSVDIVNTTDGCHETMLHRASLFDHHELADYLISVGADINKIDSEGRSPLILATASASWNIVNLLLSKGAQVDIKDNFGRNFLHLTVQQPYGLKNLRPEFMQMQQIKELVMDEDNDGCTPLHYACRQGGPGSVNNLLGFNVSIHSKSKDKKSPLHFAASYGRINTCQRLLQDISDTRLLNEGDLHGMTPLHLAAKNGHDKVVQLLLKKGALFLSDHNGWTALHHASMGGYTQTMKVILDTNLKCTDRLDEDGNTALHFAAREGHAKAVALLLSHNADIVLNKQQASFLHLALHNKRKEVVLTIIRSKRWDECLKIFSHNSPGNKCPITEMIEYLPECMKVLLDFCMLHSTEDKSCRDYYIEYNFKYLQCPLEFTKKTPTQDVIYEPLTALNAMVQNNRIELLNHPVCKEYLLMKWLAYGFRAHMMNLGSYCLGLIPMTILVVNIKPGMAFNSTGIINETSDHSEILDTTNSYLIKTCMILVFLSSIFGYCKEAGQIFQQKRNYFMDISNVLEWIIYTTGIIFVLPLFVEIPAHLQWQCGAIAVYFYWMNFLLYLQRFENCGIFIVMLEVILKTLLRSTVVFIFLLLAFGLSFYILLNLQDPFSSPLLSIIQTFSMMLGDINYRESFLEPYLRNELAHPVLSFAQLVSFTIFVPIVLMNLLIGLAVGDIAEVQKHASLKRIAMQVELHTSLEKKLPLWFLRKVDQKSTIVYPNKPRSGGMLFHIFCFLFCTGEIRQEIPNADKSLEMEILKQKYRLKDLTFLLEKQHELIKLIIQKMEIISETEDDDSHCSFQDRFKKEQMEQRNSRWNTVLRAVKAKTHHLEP

Compound: O=C1c2cccc(O)c2C(=O)c2cccc(O)c21 [Anthrarufin, reference compound]
- TRPA1 activation rates (Human TRPA1 (hTRPA1) [1]; test sample 200 μM): 0.587 ± 0.0172%

Compound: Cc1cc(O)c2c(c1)C(=O)c1cccc(O)c1C2=O [Chrysophanol, reference compound]
- TRPA1 activation rates (Human TRPA1 (hTRPA1) [1]; test sample 200 μM): 3.27 ± 0.439%

Compound: CCC(=N\O)/C(C)=C/c1ccc(F)cc1 [Compound A-967079, reference compound]
- Cumulative amounts of food ingested of mice ([2]; 0.5 hour after the administration): 0.026 ± 0.0093 g
- Cumulative amounts of food ingested of mice ([2]; 1 hour after the administration): 0.042 ± 0.015 g
- Cumulative amounts of food ingested of mice ([2]; 2 hours after the administration): 0.088 ± 0.027 g
- Cumulative amounts of food ingested of mice ([2]; 3 hours after the administration): 0.20 ± 0.066 g

Compound: CC/C=C/CC(O)/C=C/C=C\CCCCCCCC(=O)O (stereo not drawn) [Compound R1-2]
- TRPA1 activating action with TRPA1-specific antagonist (in words) (Human TRPA1 (hTRPA1) [3]): inhibited by the TRPA1-specific antagonist
- TRPA1 activating action (in words) (Human TRPA1 (hTRPA1) [3]): exhibited the TRPA1 activating action
- TRPA1 activation rate, With antagonist (Human TRPA1 (hTRPA1) [3]; test sample 200 μM): 1.75 ± 0.443%
- TRPA1 activation rate, Without antagonist (Human TRPA1 (hTRPA1) [3]; test sample 200 μM): 32.0 ± 1.40%
- TRPA1 activation rate, With antagonist (Human TRPA1 (hTRPA1) [3]; test sample 500 μM): 8.24 ± 1.13%
- TRPA1 activation rate, Without antagonist (Human TRPA1 (hTRPA1) [3]; test sample 500 μM): 95.9 ± 1.79%

Compound: CCC(O)/C=C/C=C\C/C=C\CCCCCCCC(=O)O (stereo not drawn) [Compound R2-2]
- TRPA1 activating action with TRPA1-specific antagonist (in words) (Human TRPA1 (hTRPA1) [3]): inhibited by the TRPA1-specific antagonist
- TRPA1 activating action (in words) (Human TRPA1 (hTRPA1) [3]): exhibited the TRPA1 activating action
- TRPA1 activation rate, With antagonist (Human TRPA1 (hTRPA1) [3]; test sample 200 μM): 0.71 ± 0.0743%
- TRPA1 activation rate, Without antagonist (Human TRPA1 (hTRPA1) [3]; test sample 200 μM): 21.6 ± 5.63%
- TRPA1 activation rate, With antagonist (Human TRPA1 (hTRPA1) [3]; test sample 500 μM): 1.96 ± 0.548%
- TRPA1 activation rate, Without antagonist (Human TRPA1 (hTRPA1) [3]; test sample 500 μM): 77.5 ± 0.988%

Compound: CC/C=C\C/C=C\C=C\C(O)CCCCCCCC(=O)O (stereo not drawn) [Compound R3]
- TRPA1 activating action with TRPA1-specific antagonist (in words) (Human TRPA1 (hTRPA1) [3]): inhibited by the TRPA1-specific antagonist
- TRPA1 activating action (in words) (Human TRPA1 (hTRPA1) [3]): exhibited the TRPA1 activating action
- TRPA1 activation rate, With antagonist (Human TRPA1 (hTRPA1) [3]; test sample 200 μM): 0.58 ± 0.0564%
- TRPA1 activation rate, Without antagonist (Human TRPA1 (hTRPA1) [3]; test sample 200 μM): 16.3 ± 0.812%
- TRPA1 activation rate, With antagonist (Human TRPA1 (hTRPA1) [3]; test sample 500 μM): 0.731 ± 0.237%
- TRPA1 activation rate, Without antagonist (Human TRPA1 (hTRPA1) [3]; test sample 500 μM): 93.6 ± 1.92%

Compound: O=C1c2cccc(O)c2C(=O)c2c(O)cccc21 [Dantron, reference compound]
- TRPA1 activation rates (Human TRPA1 (hTRPA1) [1]; test sample 200 μM): 4.72 ± 0.762%

Compound: Cc1cc(O)c2c(c1)C(=O)c1cc(O)cc(O)c1C2=O [Emodin, emodin]
- TRPA1 activating action with TRPA1-specific antagonist (in words) (Human TRPA1 (hTRPA1) [1]; A-967079): inhibited by A-967079
- Concentration dependence of TRPA1 activity (in words) (Human TRPA1 (hTRPA1) [1]): exhibited TRPA1 activity in concentration dependent manner
- TRPA1 activating action (in words) (Human TRPA1 (hTRPA1) [1]): exhibited TRPA1 activating actions
- TRPA1 activation rate, With antagonist (Human TRPA1 (hTRPA1) [1]; test sample 100 μM, A-967079): 0.881 ± 0.134 %
- TRPA1 activation rate, Without antagonist (Human TRPA1 (hTRPA1) [1]; test sample 100 μM): 49.4 ± 1.41%
- TRPA1 activation rate, With antagonist (Human TRPA1 (hTRPA1) [1]; test sample 200 μM, A-967079): 2.96 ± 0.246 %
- TRPA1 activation rates (Human TRPA1 (hTRPA1) [1]; test sample 200 μM): 43.1 ± 1.72%
- TRPA1 activation rate, Without antagonist (Human TRPA1 (hTRPA1) [1]; test sample 200 μM): 64.8 ± 3.73%
- TRPA1 activation rate, With antagonist (Human TRPA1 (hTRPA1) [1]; test sample 400 μM, A-967079): 6.25 ± 1.70 %
- TRPA1 activation rate, Without antagonist (Human TRPA1 (hTRPA1) [1]; test sample 400 μM): 71.29 ± 1.08%

Compound: O=C(O)c1cc(O)c2c(c1)[C@H]([C@H]1c3cc(C(=O)O)cc(O)c3C(=O)c3c(O[C@@H]4O[C@H](CO)[C@@H](O)[C@H](O)[C@H]4O)cccc31)c1cccc(O[C@@H]3O[C@H](CO)[C@@H](O)[C@H](O)[C@H]3O)c1C2=O [Sennoside A, reference compound]
- TRPA1 activation rates (Human TRPA1 (hTRPA1) [1]; test sample 200 μM): 3.33 ± 0.705%

Compound: aloe-emodin
- Concentration dependence of TRPA1 activity (in words) (Human TRPA1 (hTRPA1) [1]): exhibited TRPA1 activity in concentration dependent manner
- TRPA1 activating action (in words) (Human TRPA1 (hTRPA1) [1]): exhibited TRPA1 activating actions
- TRPA1 activation rates (Human TRPA1 (hTRPA1) [1]; test sample 200 μM): 15.3 ± 0.743%

Compound: physcion
- Concentration dependence of TRPA1 activity (in words) (Human TRPA1 (hTRPA1) [1]): exhibited TRPA1 activity in concentration dependent manner
- TRPA1 activating action (in words) (Human TRPA1 (hTRPA1) [1]): exhibited TRPA1 activating actions
- TRPA1 activation rates (Human TRPA1 (hTRPA1) [1]; test sample 200 μM): 24.3 ± 0.760%

Source: patent US20250009697A1, “COMPOSITION FOR INCREASING AMOUNT OF FOOD INGESTED AND/OR IMPROVING ANOREXIA, AND COMPOSITION FOR ACTIVATING TRANSIENT RECEPTOR POTENTIAL ANKYRIN 1” (HOUSE FOODS GROUP INC., priority 2021, published 2025)
